Source: doi:10.1101/2024.12.09.627564, “Cannabinoid inhibition of mechanosensitive K^+ channels” (bioRxiv, 2024)
pIC50: −log10 of the molar value.

How the values were obtained:
Danio rerio TREK-1 = molecular target: T1, Danio rerio TREK-1 (Danio rerio, UniProt F1QAI2); experiment: Patch recording of Danio rerio TREK-1 from cultured cells; format: biochemical; settings: IC50, Danio rerio TREK-1, patches
T1 sequence (F1QAI2 1-426): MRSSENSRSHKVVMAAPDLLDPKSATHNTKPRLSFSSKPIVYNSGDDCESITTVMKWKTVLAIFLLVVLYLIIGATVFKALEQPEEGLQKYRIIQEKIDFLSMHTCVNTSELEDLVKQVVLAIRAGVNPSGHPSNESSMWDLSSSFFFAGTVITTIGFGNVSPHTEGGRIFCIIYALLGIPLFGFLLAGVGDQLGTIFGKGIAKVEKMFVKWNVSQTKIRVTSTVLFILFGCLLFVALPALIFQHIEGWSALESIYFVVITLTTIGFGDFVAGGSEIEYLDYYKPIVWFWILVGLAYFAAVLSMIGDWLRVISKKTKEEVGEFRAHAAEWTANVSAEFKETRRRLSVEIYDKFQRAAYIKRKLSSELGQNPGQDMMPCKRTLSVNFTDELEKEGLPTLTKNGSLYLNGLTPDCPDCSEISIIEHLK
Protocol: For patch clamp recording from cultured cells, drTREK-1 or hsTRAAK genes were cloned into a modified pCEH vector to generate C-terminally EGFP-tagged constructs. HEK293T were cultured in DMEM (Gibco, Thermo Fisher Scientific) with 10% FBS and 100 U ml−1 penicillin and 100 μg ml−1 streptomycin. Trypsinized cells were deposited on 12-mm glass coverslips in a six-well dish one to two days before transfection. For transfection, drTREK-1 or hsTRAAK plasmids were mixed with FuGENE 6 in OptiMEM at a 1:3 ratio with 1 μg DNA per well per construct and applied to cells in growth medium with antibiotics. Patching was conducted from 24 to 60 h post-transfection. Coverslips were placed in a perfusion chamber at room temperature in isotonic bath solution: 135 mM NaCl, 15 mM KCl, 1 mM CaCl2, 1 mM MgCl2, 10 mM HEPES, adjusted to a final pH of 7.5 with NaOH. Cells were chosen by a combination of the presence GFP fluorescence and cell morphology consistent with healthy interphase cells. […]
Patches were evaluated with voltage-step protocols to confirm TRAAK expression and minimal non-specific leak based on reversal potential. Currents were recorded using an Axopatch 200B amplifier (Molecular Devices) at a bandwidth of 1 kHz and digitized with an Digidata 1550B (Molecular Devices) at 100–500 kHz using pClamp10.7 software. […] Data were analyzed using Clampfit 10.7, Excel, and Graphpad Prism software. […]

BK = tested on: BK; set-up: method as in PMID 38708937; settings: inhibition; cited from earlier work

C=C(C)[C@@H]1CCC(C)=C[C@H]1c1c(O)cc(CCCCC)cc1O [CBD, Cannabidiol]
pIC50 (Danio rerio TREK-1): 4.95
pIC50 (BK): 6.55
